US20170320870A1 (Medical Research Council Technology, priority 2009, published 2017)

Molecular target: T1, LRRK2 wild type (recombinant human, catalytic domain amino acids 970-2527, GST-tagged) (Homo sapiens, UniProt Q5S007)
T1 construct: The wild type used was recombinant human, catalytic domain (amino acids 970-2527) GST-tagged, expressed in insect cells; GST; purchased Invitrogen Corporation PV4873; host or cells: insect cells
Experiment: LRRK2 wild type protein kinase assay ([γ-33P] ATP, peptide substrate […]), IC50
Format: biochemical
Conditions: LRRK2 (variant not given); read-out: Potency score, LRRK2 IC50
Outline: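 Insect-cell-expressed enzyme (~5 nM), no activation, incubated 180 min at ~21 °C in 50 mM Tris-HCl pH 7.5, 0.1 mM EGTA, 1 mM DTT, 10 mM MgCl2 with 100 μM peptide substrate and [γ-33P]ATP. Reaction stopped with orthophosphoric acid, captured on P81 filters and counted; IC50 from 10 concentrations in duplicate.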

T1 sequence (Q5S007 970-2527): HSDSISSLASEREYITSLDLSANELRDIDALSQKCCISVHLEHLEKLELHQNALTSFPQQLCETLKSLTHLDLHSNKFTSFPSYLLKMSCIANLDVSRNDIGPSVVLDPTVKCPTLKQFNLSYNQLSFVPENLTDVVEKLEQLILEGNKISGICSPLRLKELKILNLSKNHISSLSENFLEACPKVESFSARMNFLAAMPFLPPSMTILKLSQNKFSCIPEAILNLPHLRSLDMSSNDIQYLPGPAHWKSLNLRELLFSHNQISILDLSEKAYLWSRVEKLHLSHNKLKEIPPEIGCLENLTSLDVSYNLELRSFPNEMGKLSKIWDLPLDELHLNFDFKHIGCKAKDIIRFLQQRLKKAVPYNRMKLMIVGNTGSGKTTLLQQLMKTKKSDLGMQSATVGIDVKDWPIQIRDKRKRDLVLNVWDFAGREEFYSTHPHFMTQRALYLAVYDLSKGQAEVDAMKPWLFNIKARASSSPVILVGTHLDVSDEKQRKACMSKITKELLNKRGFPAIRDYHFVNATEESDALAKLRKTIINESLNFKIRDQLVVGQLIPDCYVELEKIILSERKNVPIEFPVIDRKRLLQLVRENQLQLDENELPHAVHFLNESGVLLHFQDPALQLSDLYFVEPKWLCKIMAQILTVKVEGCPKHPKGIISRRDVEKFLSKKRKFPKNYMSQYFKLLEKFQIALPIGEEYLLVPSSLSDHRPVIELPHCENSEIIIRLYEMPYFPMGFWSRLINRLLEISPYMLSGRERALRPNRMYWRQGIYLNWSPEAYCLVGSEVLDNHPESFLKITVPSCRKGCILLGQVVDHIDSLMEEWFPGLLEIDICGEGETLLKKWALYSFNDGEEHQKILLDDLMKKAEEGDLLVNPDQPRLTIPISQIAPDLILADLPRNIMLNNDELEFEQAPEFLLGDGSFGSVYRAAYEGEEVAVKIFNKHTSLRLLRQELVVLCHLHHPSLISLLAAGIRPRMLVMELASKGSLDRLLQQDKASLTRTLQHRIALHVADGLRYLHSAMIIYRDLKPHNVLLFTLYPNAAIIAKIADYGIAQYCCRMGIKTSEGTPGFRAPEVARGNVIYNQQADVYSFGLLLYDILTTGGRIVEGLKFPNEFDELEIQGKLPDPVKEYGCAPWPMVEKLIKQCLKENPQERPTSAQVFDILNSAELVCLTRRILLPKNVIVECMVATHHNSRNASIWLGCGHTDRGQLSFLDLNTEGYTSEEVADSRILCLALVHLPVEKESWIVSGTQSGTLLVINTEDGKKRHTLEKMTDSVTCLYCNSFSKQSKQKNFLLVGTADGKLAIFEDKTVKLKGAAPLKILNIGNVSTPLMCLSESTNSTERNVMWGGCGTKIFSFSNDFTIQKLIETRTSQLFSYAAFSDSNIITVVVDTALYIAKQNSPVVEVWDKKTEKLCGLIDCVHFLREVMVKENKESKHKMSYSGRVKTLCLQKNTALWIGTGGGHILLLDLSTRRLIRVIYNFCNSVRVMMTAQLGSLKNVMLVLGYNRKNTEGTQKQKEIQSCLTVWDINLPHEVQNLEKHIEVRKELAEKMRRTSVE

SMILES	IC50 [µM]
Cc1n[nH]c2ccnc(NCCc3ccccc3Cl)c12 [Example 330, [2-(2-Chloro-phenyl)-ethyl]-(3-methyl-1H-pyrazolo[4,3-c]pyridin-4-yl)-amine]	< 0.1
Cc1n[nH]c2ccnc(NCCc3cccc(Cl)c3)c12 [Example 331, [2-(3-Chloro-phenyl)-ethyl]-(3-methyl-1H-pyrazolo[4,3-c]pyridin-4-yl)-amine]	0.1 to 1
Cc1n[nH]c2ccnc(NCCc3cccc(F)c3)c12 [Example 333, [2-(3-Fluoro-phenyl)-ethyl]-(3-methyl-1H-pyrazolo[4,3-c]pyridin-4-yl)-amine]	0.1 to 1
Cc1n[nH]c2ccnc(NCCc3ccccc3)c12 [Example 335]	0.1 to 1
COc1ccccc1CCNc1nccc2[nH]nc(C)c12 [Example 339, [2-(2-Methoxy-phenyl)-ethyl]-(3-methyl-1H-pyrazolo[4,3-c]pyridin-4-yl)-amine]	1 to 10
CCOc1ccccc1CNc1nccc2[nH]nc(C)c12 [Example 340, (2-Ethoxy-benzyl)-(3-methyl-1H-pyrazolo[4,3-c]pyridin-4-yl)-amine]	1 to 10
Cc1n[nH]c2ccnc(NCCC(C)C)c12 [Example 343, (3-Methyl-butyl)-(3-methyl-1H-pyrazolo[4,3-c]pyridin-4-yl)-amine]	1 to 10
Cc1n[nH]c2ccnc(Nc3ccc(C(F)(F)F)cc3)c12 [Example 346, (3-Methyl-1H-pyrazolo[4,3-c]pyridin-4-yl)-(4-trifluoromethyl-phenyl)-amine]	0.1 to 1
Cc1n[nH]c2ccnc(Nc3cccc(C#N)c3)c12 [Example 347, 3-(3-Methyl-1H-pyrazolo[4,3-c]pyridin-4-ylamino)-benzonitrile]	0.1 to 1
Cc1n[nH]c2ccnc(Nc3ccc(C#N)cc3)c12 [Example 348, 4-(3-Methyl-1H-pyrazolo[4,3-c]pyridin-4-ylamino)-benzonitrile]	1 to 10
Cc1cc(C)c(Nc2nccc3[nH]nc(C)c23)cn1 [Example 350, (4,6-Dimethyl-pyridin-3-yl)-(3-methyl-1H-pyrazolo[4,3-c]pyridin-4-yl)-amine]	1 to 10

Second part, the molecule after the results:

IC50 [µM]	SMILES
0.1 to 1	Cc1n[nH]c2ccnc(NCCc3ccc(Cl)cc3)c12 [Example 329, [2-(4-Chloro-phenyl)-ethyl]-(3-methyl-1H-pyrazolo[4,3-c]pyridin-4-yl)-amine]
0.1 to 1	Cc1n[nH]c2ccnc(NCCc3ccccc3F)c12 [Example 332, [2-(2-Fluoro-phenyl)-ethyl]-(3-methyl-1H-pyrazolo[4,3-c]pyridin-4-yl)-amine]
0.1 to 1	Cc1n[nH]c2ccnc(NCCc3ccc(F)cc3)c12 [Example 334, [2-(4-Fluoro-phenyl)-ethyl]-(3-methyl-1H-pyrazolo[4,3-c]pyridin-4-yl)-amine]
1 to 10	COc1ccccc1CNc1nccc2[nH]nc(C)c12 [Example 336]
1 to 10	Cc1n[nH]c2ccnc(NCCNc3ccccc3)c12 [Example 337, N-(3-Methyl-1H-pyrazolo[4,3-c]pyridin-4-yl)-N′-phenyl-ethane-1,2-diamine]
1 to 10	COc1ccc(CCNc2nccc3[nH]nc(C)c23)cc1 [Example 338, [2-(4-Methoxy-phenyl)-ethyl]-(3-methyl-1H-pyrazolo[4,3-c]pyridin-4-yl)-amine]
1 to 10	Cc1n[nH]c2ccnc(Nc3cccc(OC(C)C)c3)c12 [Example 341, (3-Isopropoxy-phenyl)-(3-methyl-1H-pyrazolo[4,3-c]pyridin-4-yl)-amine]
1 to 10	Cc1n[nH]c2ccnc(NCCc3c[nH]c4ccccc34)c12 [Example 342, [2-(1H-Indol-3-yl)-ethyl]-(3-methyl-1H-pyrazolo[4,3-c]pyridin-4-yl)-amine]
1 to 10	Cc1ccc(Nc2nccc3[nH]nc(C)c23)cn1 [Example 344, (3-Methyl-1H-pyrazolo[4,3-c]pyridin-4-yl)-(6-methyl-pyridin-3-yl)-amine]
1 to 10	Cc1n[nH]c2ccnc(NCCCn3cccn3)c12 [Example 345, (3-Methyl-1H-pyrazolo[4,3-c]pyridin-4-yl)-(3-pyrazol-1-yl-propyl)-amine]
0.1 to 1	Cc1n[nH]c2ccnc(Nc3ccc4ncoc4c3)c12 [Example 349, Benzoxazol-6-yl-(3-methyl-1H-pyrazolo[4,3-c]pyridin-4-yl)-amine]
0.1 to 1	Cc1n[nH]c2ccnc(NCCc3cccnc3)c12 [Example 351, (3-Methyl-1H-pyrazolo[4,3-c]pyridin-4-yl)-(2-pyridin-3-yl-ethyl)-amine]
1 to 10	Cc1n[nH]c2ccnc(Nc3ccc4nccnc4c3)c12 [Example 352, (3-Methyl-1H-pyrazolo[4,3-c]pyridin-4-yl)-quinoxalin-6-yl-amine]
1 to 10	Cc1n[nH]c2ccnc(Nc3cccc(-c4nnco4)c3)c12 [Example 353]
